The values below come from patent US8343983B2, “Substituted pyrazolo-pyrimidine compounds” (ArQule, Inc., priority 2009, dated 2013).

Where two headings read alike, the source gives them in different places.

The test system of this assay is cancer cells. In words: MTS assay: inhibition of cell growth (formazan absorbance at 492 nm after 72 hours with test compound). In kind it is cell-based. The note with it: inhibition class. In outline:
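DMEM with 1% FBS; cells seeded at 3000/well and grown 18 h at 37 °C, then exposed to compound for 72 h and to MTS/PMS for 4 h. IC50 is the concentration giving a 50% absorbance drop; grades are % inhibition bands.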

Where [1] appears, read: Homo sapiens, DLD-1 cells, read-out: DLD-1, MTS 72 hours at 10 uM.
[2] abbreviates: Homo sapiens, KATO III cells, read-out: KATO III, MTS 72 hours at 10 uM.
The mark [3] stands for this setting: Homo sapiens, MDA-MB-231 cells, read-out: MDA-MB-231, MTS 72 hours at 10 uM.
The mark [4] stands for this setting: Homo sapiens, NCI-H1299 cells, read-out: NCI-H1299, MTS 72 hours at 10 uM.
The mark [5] stands for this setting: Homo sapiens, PC-3 cells, read-out: PC-3, MTS 72 hours at 10 uM.
[6] abbreviates: PACA-2 cells, read-out: PACA-2, MTS 72 hours at 10 uM.

With `COc1ccc(CN2CCc3n[nH]c4nc(NCc5cccnc5)nc2c34)cc1` [Compound 102, 6-(4-methoxybenzyl)-N-(pyridin-3-ylmethyl)-2,6,7,8-tetrahydro-1,2,3,5,6-pentaazaacenaphthylen-4-amine], the inhibition at 10 µM is, setting by setting: under setting [1], more than 79%; under setting [2], more than 79%; under setting [3], more than 79%; under setting [4], more than 79%; under setting [5], more than 79%; under setting [6], more than 79%.

As to `CC(O)CNc1nc2c3c(n[nH]c3n1)CCN2Cc1ccccc1` (stereo not drawn) [Compound 69, 1-[(6-benzyl-2,6,7,8-tetrahydro-1,2,3,5,6-pentaazaacenaphthylen-4-yl)amino]propan-2-ol], the inhibition at 10 µM was less than 50% under setting [1]; less than 50% under setting [2]; less than 50% under setting [3]; less than 50% under setting [4]; less than 50% under setting [5]; less than 50% under setting [6].

For `Brc1cccc(CCNc2nc3c4c(n[nH]c4n2)CCN3Cc2ccccc2)c1` [Compound 28, 6-benzyl-N-[2-(3-bromophenyl)ethyl]-2,6,7,8-tetrahydro-1,2,3,5,6-pentaazaacenaphthylen-4-amine], the inhibition at 10 µM was less than 50% under setting [1]; more than 79% under setting [2]; more than 79% under setting [3]; more than 79% under setting [4]; more than 79% under setting [5]; less than 50% under setting [6].

Consider `c1ccc(CN2CCc3n[nH]c4nc(NCc5ccc(Oc6ccccc6)cc5)nc2c34)cc1` [Compound 40], for which the inhibition at 10 µM by setting is: under setting [1], less than 50%; under setting [2], 50 to 79%; under setting [3], less than 50%; under setting [4], 50 to 79%; under setting [5], less than 50%; under setting [6], 50 to 79%.

In the case of `COc1ccc(CN2CCc3n[nH]c4nc(Nc5ccccc5)nc2c34)cc1` [Compound 118, 6-(4-methoxybenzyl)-N-phenyl-2,6,7,8-tetrahydro-1,2,3,5,6-pentaazaacenaphthylen-4-amine], the inhibition at 10 µM by setting is: under setting [1], less than 50%; under setting [2], less than 50%; under setting [3], less than 50%; under setting [4], less than 50%; under setting [5], less than 50%; under setting [6], less than 50%.

On to `C[C@@H]1CN(c2nc3c4c(n[nH]c4n2)CCN3Cc2ccccc2)C[C@H](C)O1` [Compound 96, 6-benzyl-4-[(2R,6S)-2,6-dimethylmorpholin-4-yl]-2,6,7,8-tetrahydro-1,2,3,5,6-pentaazaacenaphthylene], for which the inhibition at 10 µM under setting [1] is less than 50%; the inhibition at 10 µM under setting [2] is more than 79%; the inhibition at 10 µM under setting [3] is more than 79%; the inhibition at 10 µM under setting [4] was less than 50%; the inhibition at 10 µM under setting [5] was more than 79%; the inhibition at 10 µM under setting [6] was less than 50%.

In the case of `COc1ccc(CN2CCCc3n[nH]c4nc(NCc5cccnc5)nc2c34)cc1` [Compound 251, 6-(4-methoxybenzyl)-N-(pyridin-3-ylmethyl)-6,7,8,9-tetrahydro-2H-1,2,3,5,6-pentaazabenzo[cd]azulen-4-amine], the inhibition at 10 µM by setting is: under setting [1], more than 79%; under setting [2], more than 79%; under setting [3], more than 79%; under setting [4], more than 79%; under setting [5], more than 79%; under setting [6], more than 79%.

For the compound `COc1ccc(CN2CCCc3n[nH]c4nc(NCc5ccccc5Cl)nc2c34)cc1` [Compound 250, N-(2-chlorobenzyl)-6-(4-methoxybenzyl)-6,7,8,9-tetrahydro-2H-1,2,3,5,6-pentaazabenzo[cd]azulen-4-amine], the inhibition at 10 µM reads like this: under setting [1], 50 to 79%; under setting [2], more than 79%; under setting [3], 50 to 79%; under setting [4], less than 50%; under setting [5], more than 79%; under setting [6], more than 79%.

As for `c1ccc(CN2CCc3n[nH]c4nc(NC5Cc6ccccc6C5)nc2c34)cc1` [Compound 17, 6-benzyl-N-(2,3-dihydro-1H-inden-2-yl)-2,6,7,8-tetrahydro-1,2,3,5,6-pentaazaacenaphthylen-4-amine], the inhibition at 10 µM runs as follows: under setting [1], 50 to 79%; under setting [2], 50 to 79%; under setting [3], less than 50%; under setting [4], 50 to 79%; under setting [5], less than 50%; under setting [6], 50 to 79%.

Take `c1ccc(CC2CCN(c3nc4c5c(n[nH]c5n3)CCN4Cc3ccccc3)CC2)cc1` [Compound 45, 6-benzyl-4-(4-benzylpiperidin-1-yl)-2,6,7,8-tetrahydro-1,2,3,5,6-pentaazaacenaphthylene]: the inhibition at 10 µM under setting [1] was less than 50%; the inhibition at 10 µM under setting [2] was less than 50%; the inhibition at 10 µM under setting [3] is less than 50%; the inhibition at 10 µM under setting [4] is less than 50%; the inhibition at 10 µM under setting [5] was less than 50%; the inhibition at 10 µM under setting [6] is less than 50%.

Regarding `c1ccc(CN2CCc3n[nH]c4nc(N5CCN(Cc6ccccn6)CC5)nc2c34)cc1` [Compound 29, 6-benzyl-4-[4-(pyridin-2-ylmethyl)piperazin-1-yl]-2,6,7,8-tetrahydro-1,2,3,5,6-pentaazaacenaphthylene], the inhibition at 10 µM is, setting by setting: under setting [1], less than 50%; under setting [2], less than 50%; under setting [3], less than 50%; under setting [4], less than 50%; under setting [5], less than 50%; under setting [6], less than 50%.

As to `COc1ccc(CN2CCc3n[nH]c4nc(NCCc5ccc(F)cc5)nc2c34)cc1` [Compound 109, N-[2-(4-fluorophenyl)ethyl]-6-(4-methoxybenzyl)-2,6,7,8-tetrahydro-1,2,3,5,6-pentaazaacenaphthylen-4-amine], the inhibition at 10 µM by setting is: under setting [1], 50 to 79%; under setting [2], 50 to 79%; under setting [3], less than 50%; under setting [4], 50 to 79%; under setting [5], less than 50%; under setting [6], 50 to 79%.

For the compound `FC(F)(F)c1ccnc(N2CCN(c3nc4c5c(n[nH]c5n3)CCN4Cc3ccccc3)CC2)n1` [Compound 4, 6-benzyl-4-{4-[4-(trifluoromethyl)pyrimidin-2-yl]piperazin-1-yl}-2,6,7,8-tetrahydro-1,2,3,5,6-pentaazaacenaphthylene], the inhibition at 10 µM runs as follows: under setting [1], 50 to 79%; under setting [2], less than 50%; under setting [3], more than 79%; under setting [4], more than 79%; under setting [5], more than 79%; under setting [6], less than 50%.

For the compound `c1ccc(CN2CCc3n[nH]c4nc(NCc5ccc6c(c5)OCO6)nc2c34)cc1` [Compound 31, N-(1,3-benzodioxol-5-ylmethyl)-6-benzyl-2,6,7,8-tetrahydro-1,2,3,5,6-pentaazaacenaphthylen-4-amine], the inhibition at 10 µM is, setting by setting: under setting [1], less than 50%; under setting [2], less than 50%; under setting [3], less than 50%; under setting [4], less than 50%; under setting [5], less than 50%; under setting [6], less than 50%.

`COc1ccc(CN2CCCc3n[nH]c4nc(NCc5ccc(Cl)cc5)nc2c34)cc1` [Compound 253, N-(4-chlorobenzyl)-6-(4-methoxybenzyl)-6,7,8,9-tetrahydro-2H-1,2,3,5,6-pentaazabenzo[cd]azulen-4-amine]: the inhibition at 10 µM under setting [1] is less than 50%; the inhibition at 10 µM under setting [2] was less than 50%; the inhibition at 10 µM under setting [3] was less than 50%; the inhibition at 10 µM under setting [4] was in the range of 50 to 79%; the inhibition at 10 µM under setting [5] was less than 50%; the inhibition at 10 µM under setting [6] was less than 50%.

With `COc1cccc(N2CCN(c3nc4c5c(n[nH]c5n3)CCN4Cc3ccccc3)CC2)c1` [Compound 9, 6-benzyl-4-[4-(3-methoxyphenyl)piperazin-1-yl]-2,6,7,8-tetrahydro-1,2,3,5,6-pentaazaacenaphthylene], the inhibition at 10 µM reads like this: under setting [1], less than 50%; under setting [2], less than 50%; under setting [3], more than 79%; under setting [4], less than 50%; under setting [5], more than 79%; under setting [6], less than 50%.

For the compound `c1ccc(CN2CCc3n[nH]c4nc(NCCN5CCOCC5)nc2c34)cc1` [Compound 57, 6-benzyl-N-(2-morpholin-4-ylethyl)-2,6,7,8-tetrahydro-1,2,3,5,6-pentaazaacenaphthylen-4-amine], the inhibition at 10 µM reads like this: under setting [1], more than 79%; under setting [2], more than 79%; under setting [3], more than 79%; under setting [4], 50 to 79%; under setting [5], more than 79%; under setting [6], more than 79%.

For the compound `O=C(NCCc1ccccc1)C1CN(Cc2ccccc2)c2nc(NCc3ccccc3)nc3[nH]nc1c23` (stereo not drawn) [Compound 235, 6-benzyl-4-(benzylamino)-N-(2-phenylethyl)-2,6,7,8-tetrahydro-1,2,3,5,6-pentaazaacenaphthylene-8-carboxamide], the inhibition at 10 µM is, setting by setting: under setting [1], more than 79%; under setting [2], more than 79%; under setting [3], more than 79%; under setting [4], more than 79%; under setting [5], more than 79%; under setting [6], more than 79%.

For `c1ccc(CN2CCc3n[nH]c4nc(NCC5COc6ccccc6O5)nc2c34)cc1` (stereo not drawn) [Compound 59, 6-benzyl-N-(2,3-dihydro-1,4-benzodioxin-2-ylmethyl)-2,6,7,8-tetrahydro-1,2,3,5,6-pentaazaacenaphthylen-4-amine], the inhibition at 10 µM was less than 50% under setting [1]; less than 50% under setting [2]; less than 50% under setting [3]; less than 50% under setting [4]; less than 50% under setting [5]; less than 50% under setting [6].
